In the supplement of paper PMC10307832:

Columns and labels:
Test in all cases: relative viability (nuclei count vs DMSO), 5 days (fraction); higher = more cells survive
[1] = tested on: LU99A
Summary of the method: (§1)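 Dosing by pin tool came one day after lung cancer cell lines were seeded in 1536-well plates, using either one drug or a fixed anchor-drug dose plus five library-drug doses (not always all listed) in √10 steps. After 5 days, nuclei were counted on 4× images. Relative viability is treated-well nuclei count divided by vehicle-well nuclei count, and values are medians of duplicate plates.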

[2] = tested on: CAL-12T
Summary of the method: as §1

[3] = tested on: HCC-366
Summary of the method: as §1

[4] = tested on: ABC-1
Summary of the method: as §1

[5] = tested on: NCI-H2405
Summary of the method: as §1

[6] = tested on: HCC-78
Summary of the method: as §1

[7] = tested on: EPLC-272H
Summary of the method: as §1

[8] = tested on: ChaGo-K-1
Summary of the method: as §1

[9] = tested on: NCI-H1944
Summary of the method: as §1

[10] = tested on: LC-2-ad
Summary of the method: as §1

[11] = tested on: PC-3 [JPC-3]
Summary of the method: as §1

[12] = tested on: NCI-H2087
Summary of the method: as §1

[13] = tested on: NCI-H1793
Summary of the method: as §1

[14] = tested on: NCI-H1734
Summary of the method: as §1

[15] = tested on: RERF-LC-KJ
Summary of the method: as §1

[16] = tested on: NCI-H3122
Summary of the method: as §1

[17] = tested on: LOU-NH91
Summary of the method: as §1

[18] = tested on: UMC-11
Summary of the method: as §1

[19] = tested on: NCI-H460
Summary of the method: as §1

[20] = tested on: NCI-H1395
Summary of the method: as §1

[21] = tested on: NCI-H1755
Summary of the method: as §1

[22] = tested on: NCI-H2170
Summary of the method: as §1

[23] = tested on: NCI-H2228
Summary of the method: as §1

[24] = tested on: NCI-H1651
Summary of the method: as §1

Clc1ccc(Nc2nnc(Cc3ccncc3)c3ccccc23)cc1 [Vatalanib] + O=C(c1cc(Cc2n[nH]c(=O)c3ccccc23)ccc1F)N1CCN(C(=O)C2CC2)CC1 [Olaparib] (partner 8 µM)
relative viability ([1]; first compound 0.04 µM): 0.252 | relative viability ([1]; first compound 0.1265 µM): 0.281 | relative viability ([1]; first compound 0.4 µM): 0.237 | relative viability ([1]; first compound 1.265 µM): 0.23 | relative viability ([1]; first compound 4 µM): 0.309 | relative viability ([2]; first compound 0.04 µM): 0.692 | relative viability ([2]; first compound 0.1265 µM): 0.645 | relative viability ([2]; first compound 0.4 µM): 0.773 | relative viability ([2]; first compound 1.265 µM): 0.697 | relative viability ([2]; first compound 4 µM): 0.672 | relative viability ([3]; first compound 0.04 µM): 0.337 | relative viability ([3]; first compound 0.1265 µM): 0.34 | relative viability ([3]; first compound 0.4 µM): 0.416 | relative viability ([3]; first compound 1.265 µM): 0.334 | relative viability ([3]; first compound 4 µM): 0.303 | relative viability ([4]; first compound 0.04 µM): 0.642 | relative viability ([4]; first compound 0.1265 µM): 0.689 | relative viability ([4]; first compound 0.4 µM): 0.421 | relative viability ([4]; first compound 4 µM): 0.869 | relative viability ([5]; first compound 0.04 µM): 0.808 | relative viability ([5]; first compound 0.1265 µM): 0.807 | relative viability ([5]; first compound 0.4 µM): 0.957 | relative viability ([5]; first compound 4 µM): 0.87 | relative viability ([6]; first compound 0.04 µM): 0.899 | relative viability ([6]; first compound 0.1265 µM): 0.865 | relative viability ([6]; first compound 0.4 µM): 0.761 | relative viability ([6]; first compound 1.265 µM): 0.823 | relative viability ([6]; first compound 4 µM): 0.775 | relative viability ([7]; first compound 0.04 µM): 0.944 | relative viability ([7]; first compound 0.1265 µM): 0.79 | relative viability ([7]; first compound 0.4 µM): 1.04 | relative viability ([7]; first compound 1.265 µM): 0.688 | relative viability ([7]; first compound 4 µM): 0.86 | relative viability ([8]; first compound 0.04 µM): 0.412 | relative viability ([8]; first compound 0.1265 µM): 0.457 | relative viability ([8]; first compound 0.4 µM): 0.466 | relative viability ([8]; first compound 1.265 µM): 0.42 | relative viability ([8]; first compound 4 µM): 0.433 | relative viability ([9]; first compound 0.04 µM): 0.408 | relative viability ([9]; first compound 0.1265 µM): 0.403 | relative viability ([9]; first compound 0.4 µM): 0.417 | relative viability ([9]; first compound 1.265 µM): 0.392 | relative viability ([9]; first compound 4 µM): 0.384 | relative viability ([10]; first compound 0.04 µM): 0.661 | relative viability ([10]; first compound 0.1265 µM): 0.67 | relative viability ([10]; first compound 0.4 µM): 0.686 | relative viability ([10]; first compound 1.265 µM): 0.694 | relative viability ([10]; first compound 4 µM): 0.69 | relative viability ([11]; first compound 0.04 µM): 1.15 | relative viability ([11]; first compound 0.1265 µM): 1.02 | relative viability ([11]; first compound 0.4 µM): 0.786 | relative viability ([11]; first compound 1.265 µM): 1.04 | relative viability ([11]; first compound 4 µM): 1.1 | relative viability ([12]; first compound 0.04 µM): 0.461 | relative viability ([12]; first compound 0.1265 µM): 0.542 | relative viability ([12]; first compound 0.4 µM): 0.682 | relative viability ([12]; first compound 1.265 µM): 0.519 | relative viability ([12]; first compound 4 µM): 0.633 | relative viability ([13]; first compound 0.04 µM): 0.871 | relative viability ([13]; first compound 0.1265 µM): 0.713 | relative viability ([13]; first compound 0.4 µM): 1.02 | relative viability ([13]; first compound 1.265 µM): 0.788 | relative viability ([13]; first compound 4 µM): 0.78 | relative viability ([14]; first compound 0.04 µM): 0.64 | relative viability ([14]; first compound 0.1265 µM): 0.582 | relative viability ([14]; first compound 0.4 µM): 0.621 | relative viability ([14]; first compound 1.265 µM): 0.609 | relative viability ([14]; first compound 4 µM): 0.617 | relative viability ([15]; first compound 0.04 µM): 0.879 | relative viability ([15]; first compound 0.1265 µM): 1.04 | relative viability ([15]; first compound 0.4 µM): 0.913 | relative viability ([15]; first compound 1.265 µM): 0.832 | relative viability ([15]; first compound 4 µM): 0.882 | relative viability ([16]; first compound 0.04 µM): 0.593 | relative viability ([16]; first compound 0.1265 µM): 0.668 | relative viability ([16]; first compound 0.4 µM): 0.689 | relative viability ([16]; first compound 1.265 µM): 0.592 | relative viability ([16]; first compound 4 µM): 0.598 | relative viability ([17]; first compound 0.04 µM): 0.912 | relative viability ([17]; first compound 0.1265 µM): 0.886 | relative viability ([17]; first compound 0.4 µM): 0.793 | relative viability ([17]; first compound 1.265 µM): 0.881 | relative viability ([17]; first compound 4 µM): 0.875 | relative viability ([18]; first compound 0.04 µM): 0.331 | relative viability ([18]; first compound 0.1265 µM): 0.39 | relative viability ([18]; first compound 0.4 µM): 0.318 | relative viability ([18]; first compound 1.265 µM): 0.468 | relative viability ([18]; first compound 4 µM): 0.297 | relative viability ([19]; first compound 0.04 µM): 0.4 | relative viability ([19]; first compound 0.1265 µM): 0.44 | relative viability ([19]; first compound 1.265 µM): 0.494 | relative viability ([19]; first compound 4 µM): 0.377 | relative viability ([20]; first compound 0.04 µM): 0.448 | relative viability ([20]; first compound 0.1265 µM): 0.456 | relative viability ([20]; first compound 0.4 µM): 0.489 | relative viability ([20]; first compound 4 µM): 0.437 | relative viability ([21]; first compound 0.04 µM): 0.773 | relative viability ([21]; first compound 0.1265 µM): 0.847 | relative viability ([21]; first compound 0.4 µM): 0.878 | relative viability ([21]; first compound 1.265 µM): 0.901 | relative viability ([21]; first compound 4 µM): 0.838 | relative viability ([22]; first compound 0.04 µM): 0.623 | relative viability ([22]; first compound 0.1265 µM): 0.656 | relative viability ([22]; first compound 0.4 µM): 0.702 | relative viability ([22]; first compound 1.265 µM): 0.512 | relative viability ([22]; first compound 4 µM): 0.556 | relative viability ([23]; first compound 0.04 µM): 0.648 | relative viability ([23]; first compound 0.1265 µM): 0.772 | relative viability ([23]; first compound 0.4 µM): 0.816 | relative viability ([23]; first compound 1.265 µM): 0.654 | relative viability ([23]; first compound 4 µM): 0.598 | relative viability ([24]; first compound 0.04 µM): 0.19 | relative viability ([24]; first compound 0.1265 µM): 0.184 | relative viability ([24]; first compound 0.4 µM): 0.195 | relative viability ([24]; first compound 1.265 µM): 0.202 | relative viability ([24]; first compound 4 µM): 0.179
